Assay results published in patent publication US20100222349A1, “QUINOLINE DERIVATIVES USED TO TREAT INFLAMMATORY AND ALLERGIC DISEASES” (Glaxo Group Limited, priority 2007, published 2010).

How the values were obtained:
histamine H3 receptor = biological target: T1, histamine H3 receptor (Homo sapiens, UniProt Q9Y5N1); experiment: Histamine H3 functional antagonist assay (GTPγS, membranes); assay type: biochemical; conditions: CHO K1 membranes, [35S]-GTPγS, histamine at EC80; read-out: average pKi (pKb) at H3 (converted)
T1 construct: expressed in transfected cells; host or cells: CHO K1 cells with pSwitch/pGeneH3 (GeneSwitch, mifepristone-induced), clone 3H3; membrane preparation
Method: The histamine H3 cDNA is isolated from its holding vector, pcDNA3.1 TOPO (InVitrogen), by restriction digestion of plasmid DNA with the enzymes BamH1 and Not-1 and is ligated into the inducible expression vector pGene (InVitrogen) digested with the same enzymes. The GeneSwitchTM system (a system where in transgene expression is switched off in the absence of an inducer and switched on in the presence of an inducer) is performed as described in U.S. Pat. Nos. 5,364,791; 5,874,534; and 5,935,934. Ligated DNA is transformed into competent DH5α E. coli host bacterial cells and is plated onto Luria Broth (LB) agar containing ZeocinTM (an antibiotic which allows the selection of cells expressing the sh ble gene which is present on pGene and pSwitch) at 50 μgml^-1. Colonies containing the re-ligated plasmid are identified by restriction analysis. DNA for transfection into mammalian cells is prepared from 250 ml cultures of the host bacterium containing the […]3 plasmid and is isolated using a DNA preparation kit (Qiagen Midi-Prep) as per manufacturers guidelines (Qiagen). CHO K1 cells previously transfected with the pSwitch regulatory plasmid (InVitrogen) are seeded at 2×10^6 cells per T75 flask in Complete Medium, containing Hams F12 (GIBCOBRL, Life Technologies) medium supplemented with 10% v/v dialysed foetal bovine serum, L-glutamine, and hygromycin (100 μgml^-1), 24 h prior to use. Plasmid DNA is transfected into the cells using Lipofectamine plus according to the manufacturer's guidelines (InVitrogen). 48 h post transfection, cells are placed into complete medium supplemented with 500 μgml^-1 ZeocinTM. 10-14 days post selection, 10 nM Mifepristone (InVitrogen) is added to the culture medium to induce the expression of the receptor. 18 h post induction, cells are detached from the flask using ethylenediamine tetra-acetic acid (EDTA; 1:5000; InVitrogen), following several washes with PBS, pH 7.4 and are resuspended in Sorting Medium containing Minimum Essential Medium (MEM), without phenol red, and are supplemented with Earles salts and 3% Foetal Clone II (Hyclone). Approximately 1×10^7 cells are examined for receptor expression by staining with a rabbit polyclonal antibody, 4a, raised against the N-terminal domain of the histamine H3 receptor, are incubated on ice for 60 min, followed by two washes in sorting medium. Receptor bound antibody is detected by incubation of the cells for 60 min on ice with a goat anti rabbit antibody, conjugated with Alexa 488 fluorescence marker (Molecular Probes). Following two further washes with Sorting Medium, cells are filtered through a 50 μm FilconTM (BD Biosciences) and then are analysed on a FACS Vantage SE Flow Cytometer fitted with an Automatic Cell Deposition Unit. Control cells are non-induced cells treated in an analogous manner. Positively stained cells are sorted as single cells into 96-well plates, containing Complete Medium containing 500 μgml^-1 ZeocinTM and are allowed to expand before reanalysis for receptor expression via antibody and ligand binding studies. One clone, 3H3, is selected for membrane preparation. All steps of the protocol are carried out at 4° C. and with pre-cooled reagents. The cell pellet is resuspended in 10 volumes of homogenisation buffer (50 mM N-2-hydroxyethylpiperazine-N'-2-ethanesulfonic acid (HEPES), 1 mM ethylenediamine tetra-acetic acid (EDTA), pH 7.4 with KOH, supplemented with 10^-6 M leupeptin (acetyl-leucyl-leucyl-arginal; Sigma L2884), 25 μgml^-1 bacitracin (Sigma B0125), 1 mM phenylmethylsulfonyl fluoride (PMSF) and 2×10^-6 M pepstain A (Sigma)). The cells are then homogenised by 2×15 sec bursts in a 1 L glass Waring blender, followed by centrifugation at 500 g for 20 min. The supernatant is then spun at 48,000 g for 30 min. The pellet is resuspended in homogenisation buffer (4× the volume of the original cell pellet) by vortexing for 5 sec, followed by homogenisation in a Dounce homogeniser (10-15 strokes). […]

human H1 receptor = biological target: T2, human H1 receptor (Homo sapiens, UniProt P35367); experiment: Histamine H1 functional antagonist assay: determination of functional pKi values (FLIPR); assay type: cell-based; conditions: CHO cells expressing human H1 receptor, histamine at EC80, read-out: average pKi (pKb) at H1 (converted)
T2 construct: expressed in transfected cells
Method: The human H1 receptor is cloned using known procedures described in the literature [Biochem. Biophys. Res. Commun., 201(2):894 (1994)]. Chinese hamster ovary (CHO) cells stably expressing the human H1 receptor are generated according to known procedures described in the literature [Br. J. Pharmacol., 117(6):1071 (1996)]. The histamine H1 cell line is seeded into non-coated black-walled clear bottom 384-well tissue culture plates in alpha minimum essential medium (Gibco/Invitrogen, cat no. 22561-021), supplemented with 10′)/0 dialysed foetal calf serum (Gibco/Invitrogen cat no. 12480-021) and 2 mM L-glutamine (Gibco/Invitrogen cat no 25030-024) and is maintained overnight at 5% CO2, 37° C. Excess medium is removed from each well to leave 10 μl. 30 μl loading dye (250 μM Brilliant Black, 2 μM Fluo-4 diluted in Tyrodes buffer+probenecid (145 mM NaCl, 2.5 mM KCl, 10 mM HEPES, 10 mM D-glucose, 1.2 mM MgCl2, 1.5 mM CaCl2, 2.5 mM probenecid, pH adjusted to 7.40 with NaOH 1.0 M)) is added to each well and the plates are incubated for 60 min at 5% CO2, 37° C. 10 μl of test compound, diluted to the required concentration in Tyrodes buffer+probenecid (or 10 μl Tyrodes buffer+probenecid as a control) is added to each well and the plate is incubated for 30 min at 37° C., 5% CO2. The plates are then placed into a FLIPR™(Molecular Devices, UK) to monitor cell fluorescence (λex=488 nm, λEM=540 nm) in the manner described in Sullivan et al., (In: Lambert DG (ed.), Calcium Signaling Protocols, New Jersey: Humana Press, 1999, 125-136) before and after the addition of 10 μl histamine at a concentration that results in the final assay concentration of histamine being EC80. Functional antagonism is indicated by a suppression of histamine induced increase in fluorescence, as measured by the FLIPR™ system (Molecular Devices). By means of concentration effect curves, functional affinities are determined using standard pharmacological mathematical analysis.

T2 sequence (P35367 whole entry): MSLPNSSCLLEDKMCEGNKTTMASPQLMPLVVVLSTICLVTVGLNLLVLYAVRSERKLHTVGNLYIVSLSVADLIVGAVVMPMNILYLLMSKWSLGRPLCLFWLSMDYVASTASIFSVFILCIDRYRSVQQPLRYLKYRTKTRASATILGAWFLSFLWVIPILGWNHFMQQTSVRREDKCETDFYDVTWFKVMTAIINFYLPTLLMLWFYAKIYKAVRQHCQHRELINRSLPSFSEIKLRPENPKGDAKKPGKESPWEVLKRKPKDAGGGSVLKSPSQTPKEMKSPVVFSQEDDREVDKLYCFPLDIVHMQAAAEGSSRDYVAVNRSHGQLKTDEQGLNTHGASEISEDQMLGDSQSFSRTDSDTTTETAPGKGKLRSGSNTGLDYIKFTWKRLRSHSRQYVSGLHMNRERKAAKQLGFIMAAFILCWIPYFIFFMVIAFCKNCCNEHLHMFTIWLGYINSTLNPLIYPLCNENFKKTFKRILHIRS
T1 sequence (Q9Y5N1 whole entry, species assumed): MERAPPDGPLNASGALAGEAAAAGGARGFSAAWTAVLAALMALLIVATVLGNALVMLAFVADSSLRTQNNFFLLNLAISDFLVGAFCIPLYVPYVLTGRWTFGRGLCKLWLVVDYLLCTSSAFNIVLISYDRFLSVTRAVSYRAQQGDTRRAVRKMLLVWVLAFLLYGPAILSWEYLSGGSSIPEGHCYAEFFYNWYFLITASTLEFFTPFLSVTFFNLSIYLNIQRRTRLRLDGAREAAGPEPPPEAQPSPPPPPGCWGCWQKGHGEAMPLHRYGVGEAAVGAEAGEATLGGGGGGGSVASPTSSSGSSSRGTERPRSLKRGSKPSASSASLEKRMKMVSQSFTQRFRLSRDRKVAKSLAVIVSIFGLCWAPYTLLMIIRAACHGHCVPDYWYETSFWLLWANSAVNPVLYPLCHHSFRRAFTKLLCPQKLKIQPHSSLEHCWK

SMILES	Ki (histamine H3 receptor) [nM]	Ki (human H1 receptor) [nM]
CCCCc1cc(OC2CCN(CCCC(=O)NCC)CC2)c2ncccc2c1 [Example 20, 4-{4-[(6-butyl-8-quinolinyl)oxy]-1-piperidinyl}-N-ethylbutanamide]	> 3160	< 10
CCCCc1cc(OC2CCN(CCCCC(=O)NCCOC)CC2)c2ncccc2c1 [Example 29, 5-{4-[(6-butyl-8-quinolinyl)oxy]-1-piperidinyl}-N-[2-(methyloxy)ethyl] pentanamide]	> 3160	< 100
CCCCc1cc(OC2CCN(CC3CCCNC3=O)CC2)c2ncccc2c1 (centres unmarked) [Example 5, 3-({4-[(6-butyl-8-quinolinyl)oxy]-1-piperidinyl}methyl)-2-piperidinone]	> 316	< 10
CCCCc1cc(OC2CCN(CCC(=O)NC(C)(C)C)CC2)c2ncccc2c1 [Example 17, 3-{4-[(6-butyl-8-quinolinyl)oxy]-1-piperidinyl}-N-(1,1-dimethylethyl) propanamide]	> 3160	< 10
CCCCc1cc(OC2CCN(CC(=O)NCCOC)CC2)c2ncccc2c1 [Example 11, 2-{4-[(6-butyl-8-quinolinyl)oxy]-1-piperidinyl}-N-[2-(methyloxy)ethyl] acetamide]	> 3160	< 100
CCCCc1cc(OC2CCN(CCCC(=O)NCCOC)CC2)c2ncccc2c1 [Example 23, 4-{4-[(6-butyl-8-quinolinyl)oxy]-1-piperidinyl}-N-[2-(methyloxy)ethyl] butanamide]	> 3160	< 10
CCCCc1cc(OC2CCN(CCCCC(=O)NC(C)(C)C)CC2)c2ncccc2c1 [Example 30, 5-{4-[(6-butyl-8-quinolinyl)oxy]-1-piperidinyl}-N-(1,1-dimethylethyl) pentanamide]	> 3160	< 100
CCCCc1cc(OC2CCN(CC(=O)NC(C)(C)C)CC2)c2ncccc2c1 [Example 12, 2-{4-[(6-butyl-8-quinolinyl)oxy]-1-piperidinyl}-N-(1,1-dimethylethyl) acetamide]	> 3160	< 100
CCCCc1cc(OC2CCN(CC(=O)NCCCOC)CC2)c2ncccc2c1 [Example 8, 2-{4-[(6-butyl-8-quinolinyl)oxy]-1-piperidinyl}-N-[3-(methyloxy)propyl] acetamide]	> 3160	< 100
CCCCc1cc(OC2CCN(CC3CCN(C(=O)CC)CC3)CC2)c2ncccc2c1 [Example 2, 6-Butyl-8-({1-[(1-propanoyl-4-piperidinyl)methyl]-4-piperidinyl}oxy)quinoline]	> 316	< 100
CCCCc1cc(OC2CCN(CC(=O)N(CC)CC)CC2)c2ncccc2c1 [Example 9, 2-{4-[(6-butyl-8-quinolinyl)oxy]-1-piperidinyl}-N,N-diethylacetamide]	> 3160	< 100

The next lines start with the values.

Ki (histamine H3 receptor) [nM]	Ki (human H1 receptor) [nM]	SMILES
> 316	< 10	CCCCc1cc(OC2CCN(CCCCNC(=O)CCCOC)CC2)c2ncccc2c1 [Example 84, N-(4-{4-[(6-butyl-8-quinolinyl)oxy]-1-piperidinyl}butyl)-4-(methyloxy) butanamide]
> 316	< 10	CCCCCCc1cc(OC2CCN(C[C@H]3CC[C@H](C(=O)NC(C)C)CC3)CC2)c2ncccc2c1 [Example 56, trans-4-({4-[(6-hexyl-8-quinolinyl)oxy]-1-piperidinyl}methyl)-N-(1-methylethyl) cyclohexane carboxamide]
> 316	< 10	CCCCc1cc(OC2CCN(CCCCNC(C)=O)CC2)c2ncccc2c1 [Example 79, N-(4-{4-[(6-Butyl-8-quinolinyl)oxy]-1-piperidinyl}butyl)acetamide]
> 316	< 10	CCCCc1cc(O[C@@H]2CCN(CCC(=O)N3CCCCC3)C2)c2ncccc2c1 [Example 33, 6-butyl-8-({(3R)-1-[3-oxo-3-(1-piperidinyl)propyl]-3-pyrrolidinyl}oxy)quinoline]
> 316	< 10	CCCCCc1cc(OC2CCN(CCCNC(=O)CC)CC2)c2ncccc2c1 [Example 90, N-(3-{4-[(6-Pentyl-8-quinolinyl)oxy]-1-piperidinyl}propyl)propanamide]
> 316	< 10	CCCCc1cc(OC2CCN(CCCCCNC(=O)C(C)(C)C)CC2)c2ncccc2c1 [Example 76, N-(5-{4-[(6-butyl-8-quinolinyl)oxy]-1-piperidinyl}pentyl)-2,2-dimethyl propanamide]
> 316	< 10	CCCCc1cc(OC2CCN(CCNC(=O)CC)CC2)c2ncccc2c1 [Example 73, N-(2-{4-[(6-butyl-8-quinolinyl)oxy]-1-piperidinyl}ethyl) propanamide]
> 316	< 10	CCCCc1cc(OC2CCN(CCCCNC(=O)CCC)CC2)c2ncccc2c1 [Example 65, N-(4-{4-[(6-butyl-8-quinolinyl)oxy]-1-piperidinyl}butyl) butanamide]
> 316	< 10	CCCCc1cc(OC2CCN(C[C@H]3CC[C@H](C(=O)N4CCCC4)CC3)CC2)c2ncccc2c1 [Example 62, 6-butyl-8-[(1-{[trans-4-(1-pyrrolidinylcarbonyl)cyclohexyl]methyl}-4-piperidinyl)oxy]quinoline]
> 316	< 10	CCCCc1cc(OC2CCN(CCNC(=O)C3CCCCC3)CC2)c2ncccc2c1 [Example 75, N-(2-{4-[(6-butyl-8-quinolinyl)oxy]-1-piperidinyl}ethyl) cyclohexane carboxamide]
> 316	< 10	CCCCc1cc(OC2CCN(CCNC(=O)CCCOC)CC2)c2ncccc2c1 [Example 81, N-(2-{4-[(6-butyl-8-quinolinyl)oxy]-1-piperidinyl}ethyl)-4-(methyloxy) butanamide]
